# Test system: 677734-321-R-J1-PDC complex spheroid viability
# Experiment: Anticancer human tumor 677734-321-R-J1-PDC patient-derived soft tissue sarcoma cell line growth inhibition [POLQ]
# Details: for IC50: curve of first compound; for viability, T/C: stronger effect = lower value
# Protocol: Multicellular complex tumor spheroid response to Polymerase (POL) inhibitors (novobiocin, ART-558, RP6685) in combination with a variety of drugs and investigational agents in selected tumor cell lines
# The POL inhibitors (novobiocin, ART-558, and RP6685) were evaluated both individually and in combination with standard of care and investigational anticancer small molecules within a complex spheroid model of solid tumors. . Complex spheroids include a stromal component modeled by human endothelial cells (HUVEC) and fibroblasts modeled by human mesenchymal stem cells (MSCs). The concentration ranges selected for each drug and investigational agent were based upon clinically achievable concentrations if the clinical Cmax of the agent was known.
# Compounds. The drugs and investigational agents: novobiocin (NSC847541), ART-558 (NSC835418), RP-6685 (NSC848927), peposertib (NSC802822), ceralasertib (NSC780249), elimusertib (NSC800525), camonsertib (NSC841442), AZD-1390 (NSC803789), olaparib (NSC753686), talazoparib (NSC767125), rucaparib (NSC756644), sotorasib (NSC818433), MRTX-1133 (NSC836407), SN-38 (NSC673596), topotecan (NSC609699), epotoside (NSC141540), doxorubicin (NSC123127), gemcitabine (NSC613327), 5-fluorouracil (NSC19893), paclitaxel (NSC125973), vemurafenib (NSC761431), MSA-2 (NSC828583), SN-011 (NSC837082), adavosertib (NSC754352), prexasertib (NSC758257), carboplatin (NSC241240) and oxaliplatin (NSC266046), were obtained from the National Cancer Institute (NCI) Developmental Therapeutics Program Chemical Repository (21). The FDA-approved anticancer drug set is available from the Developmental Therapeutics Program at https://dtp.cancer.gov/organization/dscb/obtaining/. […] The stock solutions were prepared in dimethyl sulfoxide (DMSO, Sigma-Aldrich, St. Louis, MO, cat. D2650), except for the platinum compounds which were prepared in saline (Quality Biological, Gaithersburg, MD, cat. 114-055-101), at 800-fold the tested concentration and stored at -70 degrees C prior to their use. All drugs and investigational agents were tested over a range starting from a high concentration at or near the clinical Cmax and decreasing in half-log increments. If the clinical Cmax for an agent had not been determined, the highest concentration tested was 10 microM, except for SN-38, which was tested at a high concentration of 1 microM.
# Cell Culture. All cells were maintained in an incubator at 37 degrees C and 5% CO2 with 95% humidity. The PDC lines were cultured according to standard operating procedures established by the NCI PDMR (https://pdmr.cancer.gov). Table 3 of the manuscript, lists the cell lines along with the number of the three cell types plated to form the mct-spheroids and media for tumor cell growth. After thawing, all PDC lines, except 997537-175-T-J1-PDC and 415267-285-R-J2-PDC, were cultured in Matrigel-coated flasks prepared with a working solution of 1X Ham's F-12 nutrient mix, without supplementation (Thermo Fisher Scientific, cat. 11765054), 100 U/mL penicillin-streptomycin (Thermo Fisher Scientific, cat. 15140122), and 2.5% Matrigel (Corning Inc., Corning, NY, cat. 354248) for the first three passages. The two PDC lines 997537-175-T-J1-PDC and 415267-285-R-J2-PDC were cultured on uncoated flasks. The 857933-349-R-J2-PDC line was cultured in 6C/Colon 1B media containing advanced DMEM/F-12 (Thermo Fisher Scientific, cat. 12634028), 10 mM HEPES (Thermo Fisher Scientific, cat. 15630080), 1X GlutaMAX supplement (Thermo Fisher Scientific, cat. 35050061), 0.1 mg/mL primocin (InvivoGen, San Diego, CA, cat. ant-pm-2), 10% defined fetal bovine serum, heat inactivated (HyClone Laboratories Inc., Logan, UT, cat. SH30070.03HI), 50% L-WRN conditioned media (ATCC, cat. CRL-3276), 1.25 mM N-Acetyl-L-cysteine (Sigma-Aldrich, cat. A9165), 10 mM nicotinamide (Sigma-Aldrich, cat. N0636), 1X B-27 supplement (Thermo Fisher Scientific, cat. 17504044), 1X N-2 supplement (Thermo Fisher Scientific, cat. […]
# [1] = second compound 0.0316 µM, first compound 0.0316 µM
# [2] = second compound 0.0316 µM, first compound 0.1 µM
# [3] = second compound 0.0316 µM, first compound 0.316 µM
# [4] = second compound 0.0316 µM, first compound 1 µM
# [5] = second compound 0.0316 µM, first compound 3.16 µM
# [6] = second compound 0.0316 µM, first compound 10 µM
# [7] = second compound 0.1 µM, first compound 0.0316 µM
# [8] = second compound 0.1 µM, first compound 0.1 µM
# [9] = second compound 0.1 µM, first compound 0.316 µM
# [10] = second compound 0.1 µM, first compound 1 µM
# [11] = second compound 0.1 µM, first compound 3.16 µM
# [12] = second compound 0.1 µM, first compound 10 µM
# [13] = second compound 0.316 µM, first compound 0.0316 µM
# [14] = second compound 0.316 µM, first compound 0.1 µM
# [15] = second compound 0.316 µM, first compound 0.316 µM
# [16] = second compound 0.316 µM, first compound 1 µM
# [17] = second compound 0.316 µM, first compound 3.16 µM
# [18] = second compound 0.316 µM, first compound 10 µM
# [19] = second compound 1 µM, first compound 0.0316 µM
# [20] = second compound 1 µM, first compound 0.1 µM
# [21] = second compound 1 µM, first compound 0.316 µM
# [22] = second compound 1 µM, first compound 1 µM
# [23] = second compound 1 µM, first compound 3.16 µM
# [24] = second compound 1 µM, first compound 10 µM
# [25] = second compound 3.16 µM, first compound 0.0316 µM
# [26] = second compound 3.16 µM, first compound 0.1 µM
# [27] = second compound 3.16 µM, first compound 0.316 µM
# [28] = second compound 3.16 µM, first compound 1 µM
# [29] = second compound 3.16 µM, first compound 3.16 µM
# [30] = second compound 3.16 µM, first compound 10 µM
# [31] = second compound 10 µM, first compound 0.0316 µM
# [32] = second compound 10 µM, first compound 0.1 µM
# [33] = second compound 10 µM, first compound 0.316 µM
# [34] = second compound 10 µM, first compound 1 µM
# [35] = second compound 10 µM, first compound 3.16 µM
# [36] = second compound 10 µM, first compound 10 µM
# 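Further: spheroids exposed to compounds for one week.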
# 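Wherever viability, T/C is given: 100% = vehicle DMSO treated spheroids.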
smiles,measurement,setting,value
CC1COCCN1c1cc(-c2ccnn2C)c2ccnc(-c3ccn[nH]3)c2n1 (centres undefined) + COC1C(OC(N)=O)C(O)C(Oc2ccc3c(O)c(NC(=O)c4ccc(O)c(CC=C(C)C)c4)c(=O)oc3c2C)OC1(C)C,IC50,second compound 0.0316 µM,153 nM
same,IC50,second compound 0.1 µM,145 nM
same,IC50,second compound 0.316 µM,142 nM
same,IC50,second compound 1 µM,146 nM
same,IC50,second compound 3.16 µM,145 nM
same,IC50,second compound 10 µM,127 nM
same,"viability, T/C",[1],98.5%
same,"viability, T/C",[2],65.1%
same,"viability, T/C",[3],23.7%
same,"viability, T/C",[4],15.9%
same,"viability, T/C",[5],6.88%
same,"viability, T/C",[6],15.2%
same,"viability, T/C",[7],97.5%
same,"viability, T/C",[8],61.8%
same,"viability, T/C",[9],25.2%
same,"viability, T/C",[10],16.6%
same,"viability, T/C",[11],8.53%
same,"viability, T/C",[12],17.1%
same,"viability, T/C",[13],95.8%
same,"viability, T/C",[14],61.8%
same,"viability, T/C",[15],22.7%
same,"viability, T/C",[16],19.8%
same,"viability, T/C",[17],6.32%
same,"viability, T/C",[18],15.3%
same,"viability, T/C",[19],110%
same,"viability, T/C",[20],62.7%
same,"viability, T/C",[21],23.8%
same,"viability, T/C",[22],16.6%
same,"viability, T/C",[23],7.91%
same,"viability, T/C",[24],16.6%
same,"viability, T/C",[25],102%
same,"viability, T/C",[26],61.2%
same,"viability, T/C",[27],26.3%
same,"viability, T/C",[28],16.6%
same,"viability, T/C",[29],6.66%
same,"viability, T/C",[30],14.4%
same,"viability, T/C",[31],98.1%
same,"viability, T/C",[32],57.9%
same,"viability, T/C",[33],20.1%
same,"viability, T/C",[34],17.1%
same,"viability, T/C",[35],8.68%
same,"viability, T/C",[36],16.7%
CC1COCCN1c1cc(C2(S(C)(=N)=O)CC2)nc(-c2ccnc3[nH]ccc23)n1 (centres undefined) + COC1C(OC(N)=O)C(O)C(Oc2ccc3c(O)c(NC(=O)c4ccc(O)c(CC=C(C)C)c4)c(=O)oc3c2C)OC1(C)C,IC50,second compound 0.0316 µM,5960 nM
same,IC50,second compound 0.1 µM,4240 nM
same,IC50,second compound 0.316 µM,3120 nM
same,IC50,second compound 1 µM,4670 nM
same,IC50,second compound 3.16 µM,3850 nM
same,IC50,second compound 10 µM,3850 nM
same,"viability, T/C",[1],109%
same,"viability, T/C",[2],117%
same,"viability, T/C",[3],95.5%
same,"viability, T/C",[4],101%
same,"viability, T/C",[5],62.4%
same,"viability, T/C",[6],39.5%
same,"viability, T/C",[7],110%
same,"viability, T/C",[8],113%
same,"viability, T/C",[9],106%
same,"viability, T/C",[10],93%
same,"viability, T/C",[11],58.7%
same,"viability, T/C",[12],24.3%
same,"viability, T/C",[13],109%
same,"viability, T/C",[14],104%
same,"viability, T/C",[15],104%
same,"viability, T/C",[16],91.1%
same,"viability, T/C",[17],49.5%
same,"viability, T/C",[18],18.5%
same,"viability, T/C",[19],112%
same,"viability, T/C",[20],98.7%
same,"viability, T/C",[21],100%
same,"viability, T/C",[22],92.2%
same,"viability, T/C",[23],62.3%
same,"viability, T/C",[24],24.3%
same,"viability, T/C",[25],109%
same,"viability, T/C",[26],104%
same,"viability, T/C",[27],99.6%
same,"viability, T/C",[28],98.8%
same,"viability, T/C",[29],55.5%
same,"viability, T/C",[30],22.9%
same,"viability, T/C",[31],108%
same,"viability, T/C",[32],107%
same,"viability, T/C",[33],106%
same,"viability, T/C",[34],92%
same,"viability, T/C",[35],56%
same,"viability, T/C",[36],21.6%

# Source: PubChem BioAssay AID1963842 (Molecular Pharmacology Branch, DTP, NCI, 2024)
